Measurements taken from ChEMBL document CHEMBL3045481, “Insecticide-induced resurgence of the whitebacked planthopper Sogatella furcifera (Horvath) (Hemiptera: Delphacidae) on rice varieties with different levels of resistance” (Crop Prot, 2011).

Legend:
Sogatella furcifera [1] = assay: Insecticidal activity against Sogatella furcifera on insect-resistanct rice plant PR116 assessed as resurgence ratio at 0.025% concentration; assay type: functional
Oryza sativa [2] = assay: Effect on total protein level in Sogatella furcifera-resistanct Oryza sativa (rice) plant PR116 leaf blade measured per gram of dry weight at 0.025% concentration (reference value: 21.67 mg/g fresh wt); assay type: ADME, organism-based; conditions: in vivo
Sogatella furcifera [3] = assay: Insecticidal activity against Sogatella furcifera on insect-sensitive rice plant ARC6248 assessed as growth index at 0.025% concentration (reference value: 2.38%); assay type: functional
Oryza sativa [4] = assay: Effect on reducing sugar level in Sogatella furcifera-sensitive Oryza sativa (rice) plant ARC6248 leaf sheath measured per gram of dry weight at 0.025% concentration (reference value: 6.41 mg/g dry wt); assay type: ADME, organism-based; conditions: in vivo
Sogatella furcifera [5] = assay: Insecticidal activity against Sogatella furcifera on insect-resistanct rice plant PR116 assessed as growth index at 0.025% concentration (reference value: 6.02%); assay type: functional
Sogatella furcifera [6] = assay: Insecticidal activity against Sogatella furcifera on insect-resistanct rice plant PR116 assessed as nymphal survival at 0.025% concentration (reference value: 70.28%); assay type: functional
Oryza sativa [7] = assay: Effect on reducing sugar level in Sogatella furcifera-sensitive Oryza sativa (rice) plant ARC6248 leaf blade measured per gram of dry weight at 0.025% concentration (reference value: 8.37 mg/g dry wt); assay type: ADME, organism-based; conditions: in vivo
Oryza sativa [8] = assay: Effect on total sugar level in Sogatella furcifera-sensitive Oryza sativa (rice) plant ARC6248 leaf sheath measured per gram of dry weight at 0.025% concentration (reference value: 25.98 mg/g dry wt); assay type: ADME, organism-based; conditions: in vivo
Oryza sativa [9] = assay: Effect on total amino acids level in Sogatella furcifera-resistanct Oryza sativa (rice) plant PR116 leaf sheath measured per gram of dry weight at 0.025% concentration (reference value: 2.58 mg/g […]); assay type: ADME, organism-based; conditions: in vivo
Sogatella furcifera [10] = assay: Insecticidal activity against Sogatella furcifera on insect-sensitive rice plant ARC6248 assessed as resurgence ratio at 0.025% concentration; assay type: functional
Oryza sativa [11] = assay: Effect on total amino acids level in Sogatella furcifera-sensitive Oryza sativa (rice) plant ARC6248 leaf blade measured per gram of dry weight at 0.025% concentration (reference value: 3.54 mg/g […]); assay type: ADME, organism-based; conditions: in vivo
Oryza sativa [12] = assay: Effect on total sugar level in Sogatella furcifera-sensitive Oryza sativa (rice) plant ARC6248 leaf blade measured per gram of dry weight at 0.025% concentration (reference value: 34.05 mg/g dry wt); assay type: ADME, organism-based; conditions: in vivo
Oryza sativa [13] = assay: Effect on total phenols level in Sogatella furcifera-resistanct Oryza sativa (rice) plant PR116 leaf blade measured per gram of dry weight at 0.025% concentration (reference value: 8.08 mg/g dry wt); assay type: ADME, organism-based; conditions: in vivo
Oryza sativa [14] = assay: Effect on total phenols level in Sogatella furcifera-resistanct Oryza sativa (rice) plant PR116 leaf sheath measured per gram of dry weight at 0.025% concentration (reference value: 5.75 mg/g dry wt); assay type: ADME, organism-based; conditions: in vivo
Oryza sativa [15] = assay: Effect on total protein level in Sogatella furcifera-sensitive Oryza sativa (rice) plant ARC6248 leaf blade measured per gram of dry weight at 0.025% concentration (reference value: 17.67 mg/g […]); assay type: ADME, organism-based; conditions: in vivo
Sogatella furcifera [16] = assay: Insecticidal activity against Sogatella furcifera on insect-sensitive rice plant ARC6248 assessed as nymphal survival at 0.025% concentration (reference value: 34.17%); assay type: functional
Oryza sativa [17] = assay: Effect on reducing sugar level in Sogatella furcifera-resistanct Oryza sativa (rice) plant PR116 leaf sheath measured per gram of dry weight at 0.025% concentration (reference value: 7.50 mg/g dry wt); assay type: ADME, organism-based; conditions: in vivo
Sogatella furcifera [18] = assay: Insecticidal activity against Sogatella furcifera on insect-sensitive rice plant ARC6248 assessed as nymphal duration at 0.025% concentration (reference value: 14.48 days); assay type: functional
Oryza sativa [19] = assay: Effect on reducing sugar level in Sogatella furcifera-resistanct Oryza sativa (rice) plant PR116 leaf blade measured per gram of dry weight at 0.025% concentration (reference value: 9.35 mg/g dry wt); assay type: ADME, organism-based; conditions: in vivo
Sogatella furcifera [20] = assay: Insecticidal activity against Sogatella furcifera on insect-resistanct rice plant PR116 assessed as nymphal duration at 0.025% concentration (reference value: 11.75 days); assay type: functional
Oryza sativa [21] = assay: Effect on total sugar level in Sogatella furcifera-resistanct Oryza sativa (rice) plant PR116 leaf blade measured per gram of dry weight at 0.025% concentration (reference value: 36.16 mg/g dry wt); assay type: ADME, organism-based; conditions: in vivo
Oryza sativa [22] = assay: Effect on total amino acids level in Sogatella furcifera-resistanct Oryza sativa (rice) plant PR116 leaf blade measured per gram of dry weight at 0.025% concentration (reference value: 3.91 mg/g […]); assay type: ADME, organism-based; conditions: in vivo
Oryza sativa [23] = assay: Effect on total sugar level in Sogatella furcifera-resistanct Oryza sativa (rice) plant PR116 leaf sheath measured per gram of dry weight at 0.025% concentration (reference value: 30.27 mg/g dry wt); assay type: ADME, organism-based; conditions: in vivo
Oryza sativa [24] = assay: Effect on total protein level in Sogatella furcifera-sensitive Oryza sativa (rice) plant ARC6248 leaf sheath measured per gram of dry weight at 0.025% concentration (reference value: 6.11 mg/g […]); assay type: ADME, organism-based; conditions: in vivo
Oryza sativa [25] = assay: Effect on total phenols level in Sogatella furcifera-sensitive Oryza sativa (rice) plant ARC6248 leaf blade measured per gram of dry weight at 0.025% concentration (reference value: 17.08 mg/g dry wt); assay type: ADME, organism-based; conditions: in vivo
Oryza sativa [26] = assay: Effect on total phenols level in Sogatella furcifera-sensitive Oryza sativa (rice) plant ARC6248 leaf sheath measured per gram of dry weight at 0.025% concentration (reference value: 12.75 mg/g dry wt); assay type: ADME, organism-based; conditions: in vivo
Oryza sativa [27] = assay: Effect on total amino acids level in Sogatella furcifera-sensitive Oryza sativa (rice) plant ARC6248 leaf sheath measured per gram of dry weight at 0.025% concentration (reference value: 2.11 mg/g fresh wt); assay type: ADME, organism-based; conditions: in vivo
Oryza sativa [28] = assay: Effect on total protein level in Sogatella furcifera-resistanct Oryza sativa (rice) plant PR116 leaf sheath measured per gram of dry weight at 0.025% concentration (reference value: 7.06 mg/g fresh wt); assay type: ADME, organism-based; conditions: in vivo

CC1(C)[C@H](C(=O)O[C@H](C#N)c2cccc(Oc3ccccc3)c2)[C@@H]1C=C(Br)Br [DELTAMETHRIN]
Ratio (Sogatella furcifera [1]): 1.75 | Activity (Oryza sativa [2]): 23.89 mg | growth inhibition (GI) (Sogatella furcifera [3]): 2.74% | Activity (Oryza sativa [4]): 10.76 mg | growth inhibition (GI) (Sogatella furcifera [5]): 6.77% | Survival (Sogatella furcifera [6]): 78.05% | Activity (Oryza sativa [7]): 12.28 mg | Activity (Oryza sativa [8]): 35.36 mg | Activity (Oryza sativa [9]): 3.73 mg | Ratio (Sogatella furcifera [10]): 1.28 | Activity (Oryza sativa [11]): 4.21 mg | Activity (Oryza sativa [12]): 38.84 mg | Activity (Oryza sativa [13]): 6.92 mg | Activity (Oryza sativa [14]): 5.42 mg | Activity (Oryza sativa [15]): 19.83 mg | Survival (Sogatella furcifera [16]): 38.89% | Activity (Oryza sativa [17]): 13.8 mg | Time (Sogatella furcifera [18]): 14.32 days | Activity (Oryza sativa [19]): 14.35 mg | Time (Sogatella furcifera [20]): 11.63 days | Activity (Oryza sativa [21]): 44.2 mg | Activity (Oryza sativa [22]): 4.62 mg | Activity (Oryza sativa [23]): 35.62 mg | Activity (Oryza sativa [24]): 7.78 mg | Activity (Oryza sativa [25]): 17.08 mg | Activity (Oryza sativa [26]): 12 mg | Activity (Oryza sativa [27]): 2.95 mg | Activity (Oryza sativa [28]): 8 mg
